In US11591324B2, “Retinoic acid receptor antagonists as chaperone-mediated autophagy modulators and uses thereof” (ALBERT EINSTEIN COLLEGE OF MEDICINE, priority 2013, dated 2023):
Starred links: 1 amine or outer side, 2 acyl side, 3 side chain; linkers in the order of their positions; H or OH if unused. Positions of bridges follow the written chain, without caps; N, C: chain ends. Non-standard residues stand in square brackets, D forms with d. Residues, ends and D or L forms follow the SMILES beside them. Chains are numbered I, II in the order given. Actinocin(9to1) = Cc1c2oc3c(C)ccc(C(=O)[*:1])c3nc-2c(C(=O)[*:2])c(N)c1=O; NMeV = CN[C@H](C(=O)O)C(C)C; Sar = CNCC(=O)O

Assays:
macroautophagy (LC3-II) = assay: Macroautophagy: LC3-II levels and flux (immunoblot, mCherry-GFP-LC3); type: cell-based; conditions: mouse fibroblasts; retinoid derivatives 20 μM
Description: (§1) Autophagic measurements. […] Lysosomes from cultured cells were isolated by similar procedures but using instead discontinuous metrizamide/percoll gradients after rupture of the plasma membrane through nitrogen cavitation^33.
To directly analyze macroautophagy, a widely accepted assay was used to measure activity of this pathway based on the analysis of the intracellular levels and degradation of the lipid-conjugated form of the light chain protein type 3 (LC3-II), a constitutive component of autophagosomes^29. Steady-state levels of LC3-II provide information on the amount of autophagosomes present in a cell at a given time, whereas the amount of LC3-II that accumulates upon blockage of lysosomal proteolysis allows measuring the efficiency of fusion and degradation of autophagic vacuoles by lysosomes (autophagic flux). […] Immunofluorescence for LC3 in these cells confirmed the presence of higher content of LC3-positive vesicles in the cells defective for RARα. These vesicles were confirmed to be autophagosomes using a double tagged form of LC3 (mCherry-GPF-LC3) that due to quenching of GFP fluorescence at low pH highlights autophagosomes in yellow and lysosomes in red. […] An increase in autophagosome content can result from increased formation of these organelles (autophagosome induction) or from reduced clearance of autophagosomes by lysosomes. To differentiate between both possibilities, the autophagic flux was compared in control and RARα (−) cells.

[1] = tested on: chaperone-mediated autophagy (CMA); assay: High content microscopy CMA assay (KFERQ-PS-dendra reporter); type: cell-based, mouse; conditions: for basal versus stress-induced CMA activation: presence or absence of serum
Experimental: CMA activity in mouse fibroblasts in culture was measured using a new version of a previously developed photoswitchable (PS) CMA fluorescent reporter^30 generated by addition of a CMA targeting motif to the PS-dendra protein (KFERQ-PS-dendra). Briefly, cells transduced with lentivirus carrying the reporter were photoactivated 24 h after transduction by exposure to a 3.5 mA (current constant), and 90V light emitting diode (LED: Norlux, 405 nm) for 9 min. Cells were plated in 96 well plates, subjected to the desired treatments and at the end of the experiment fixed in 4% paraformaldehyde. Images were captured with a high content microscope (Opperetta system, Perkin Elmer) and quantification was performed with the instrument software in a minimum of 200 cells or 9 fields.

RARα = target: T1, RARα (Mus musculus, UniProt P11416); assay: RARα translocation to the nucleus; type: cell-based
T1 construct: endogenous in cells; host or cells: mouse fibroblasts (NIH3T3), inferred
T1 sequence (P11416 1-462): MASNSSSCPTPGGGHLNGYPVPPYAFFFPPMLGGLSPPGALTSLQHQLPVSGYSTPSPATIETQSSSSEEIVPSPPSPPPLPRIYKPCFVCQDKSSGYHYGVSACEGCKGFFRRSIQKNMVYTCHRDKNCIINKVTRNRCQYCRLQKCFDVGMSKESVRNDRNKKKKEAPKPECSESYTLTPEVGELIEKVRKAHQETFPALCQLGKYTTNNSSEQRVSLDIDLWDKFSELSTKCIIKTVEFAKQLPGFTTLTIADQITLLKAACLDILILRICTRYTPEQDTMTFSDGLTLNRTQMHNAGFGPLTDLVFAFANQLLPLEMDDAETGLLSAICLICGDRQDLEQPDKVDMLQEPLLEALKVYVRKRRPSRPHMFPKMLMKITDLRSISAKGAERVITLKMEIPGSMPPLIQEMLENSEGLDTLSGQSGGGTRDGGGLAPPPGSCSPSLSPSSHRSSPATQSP

[2] = tested on: mouse fibroblasts transfected with α-synuclein; assay: α-synuclein plus PQ proteotoxicity (viability, immunoblot); type: cell-based; conditions: pre-treatment 20 μM before 1 mM PQ
Description: Maintained chronic oxidation is a common feature of aging and an aggravating factor in multiple degenerative disorders. To model the detrimental effect of oxidative stress on proteotoxicity and analyze the possible beneficial effect of enhancing CMA activity in these conditions, cells were transfected with α-synuclein, the protein that accumulates in the form of intracellular aggregates in Parkinson's disease (PD) and previously identified as a bonafide CMA substrate^9,10. Although mutations in this protein have been associated to the familial forms of the disease, in more than 98% of PD patients the protein that accumulates in the protein inclusions is wild type. Consequently, different intracellular factors and aggressors, including oxidative stress, have been proposed to contribute to the idiopathic forms of this pathology. […] Although the presence of α-synuclein alone was not toxic for these cells, the toxicity of a fixed concentration of PQ was clearly dependent on the concentration of this protein present in the cell. The concentration of PQ added to these cells was adjusted so that in cells expressing low levels of α-synuclein, its toxic effect was limited to no more than 20% reduction in cellular viability. […]

[3] = tested on: chaperone-mediated autophagy (CMA); assay: CMA reporter assay (photoactivable KFERQ-PA-mCherry1 reporter); type: cell-based, mouse; conditions: for CMA activity (fluorescent puncta per cell, CMA reporter): mouse fibroblasts, 20 μM
Description: as §1
CMA reporter assay. The photoactivable CMA reporter was constructed by inserting a sequence of 21 amino acids of Ribonuclease A bearing the CMA-targeting motif in the N-terminus multicloning site of the photoactivable protein mCherry1 (PA-mCherry1)^30. […] All images were acquired with a high-resolution CCD camera after optical sectioning through the apotome. Images were prepared using Adobe Photoshop 6.0 software (Adobe Systems). Quantification was performed in individual frames after deconvolution and thresholding using ImageJ software (NIH) in a minimum of 50 cells.
Because the observed downregulation of macroautophagy upon RARα knock-down cannot explain the increase in lysosomal degradation observed in these cells (FIG. 1c), the effect of this intervention on CMA was measured. Activation of this selective autophagic pathway can be determined using a photoactivable (PA) reporter fused to the CMA-targeting motif (KFERQ-PA-mcherry1)^30. Activation of CMA favors mobilization of this artificial CMA substrate from the cytosol to lysosomes, which can be tracked as a change in the reporter fluorescence from a diffuse to a punctate pattern^30.

hRARα = target: T2, hRARα (Homo sapiens, UniProt P10276); assay: RARα activity, RAR-responsive luciferase reporter; type: cell-based; conditions: for RARα antagonist activity (inhibition of ATRA-dependent luciferase): in combination with 100 nM ATRA
T2 construct: expressed in transfected cells; host or cells: mouse fibroblasts (NIH3T3)
Experimental: Measurement of RARα and RXR activity. A RAR-responsive luciferase construct was utilized to monitor the activity of RARα in cultured cells. Cells were co-transfected with pCMX-Gal-L-hRARα and a construct encoding the firefly luciferase reporter gene under the control of a minimal promoter and tandem repeats of the retinoic-acid response element (tk-px3-luc). Co-transfection with a renilla luciferase reporter plasmid was performed to control for efficiency of transfection. RXR activity was measured by similar procedures using co-transfection with pCMX-mRXR and tk-apoA1-luc. Compounds were added 24 h after transfection and 48 h later cells were lysed and assayed for luciferase activity using the Dual-Luciferase Reporter Assay System (Progmega). Luciferase values were normalized to the renilla luciferase reporter.
To determine the effect of these molecules on RAR signaling, cells were co-transfected cells with a plasmid coding for RAR fused to the Gal4 DNA-binding domain and a Gal4-dependent luciferase reporter.

LAMP-2A = LAMP-2A mRNA levels (quantitative real time PCR)
[4] = tested on: mouse fibroblasts (NIH3T3); assay: Intracellular protein degradation (metabolic labeling, pulse chase)

T2 sequence (P10276 with tags, fused parts or gaps limits assumed): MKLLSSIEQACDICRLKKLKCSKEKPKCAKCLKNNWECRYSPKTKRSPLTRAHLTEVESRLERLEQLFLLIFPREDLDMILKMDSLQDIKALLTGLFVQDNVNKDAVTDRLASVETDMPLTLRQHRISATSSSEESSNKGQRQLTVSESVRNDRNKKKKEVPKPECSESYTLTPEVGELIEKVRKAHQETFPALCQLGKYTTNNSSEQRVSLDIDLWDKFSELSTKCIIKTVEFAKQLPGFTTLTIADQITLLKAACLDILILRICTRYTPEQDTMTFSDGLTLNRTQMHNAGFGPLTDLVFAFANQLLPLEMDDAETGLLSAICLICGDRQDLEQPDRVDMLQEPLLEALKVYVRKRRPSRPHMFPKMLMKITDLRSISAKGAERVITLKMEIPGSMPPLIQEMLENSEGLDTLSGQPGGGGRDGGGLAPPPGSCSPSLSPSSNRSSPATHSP

Question: With `Cc1ccc(C2=Nc3ccc(Cl)cc3OC2)cc1` [AR7] as the compound, how does the “macroautophagy: LC3 steady state levels and lysosomal flux” value (macroautophagy (LC3-II)) read?
Answer: absence of effect on other autophagic pathways

Question: What about the “basal versus stress-induced CMA activation” value [1] of the same compound?
Answer: only activated basal CMA

Question: What about the “RARα relocation to the nucleus” value (RARα) of the same compound?
Answer: sufficient to stimulate some relocation of cytosolic RARα to the nucleus

Question: And the “cellular viability of α-synuclein-transfected cells treated with PQ” value [2]?
Answer: significant increases in cellular viability

Question: What about the “CMA activity (fluorescent puncta per cell, CMA reporter)” value ([3]; presence of serum) of the same compound?
Answer: marked activation of CMA activity

Question: And the “RARα antagonist activity (inhibition of ATRA-dependent luciferase)” value (hRARα)?
Answer: among the most potent antagonist compounds in the library

Question: For `CC1=C(/C=C/C(C)=C/C=C/C(C)=C/C(=O)O)C(C)(C)CCC1` [ATRA, all-trans-retinoic acid], which “LAMP-2A mRNA levels, serum deprived” value (LAMP-2A; ATRA added to cells deprived of serum) is on record?
Answer: significant decrease in LAMP-2A mRNA

Question: What about the “LAMP-2A mRNA levels, basal” value (LAMP-2A; ATRA, basal conditions) of the same compound?
Answer: No changes in LAMP-2A mRNA levels

Question: And the “macroautophagy: LC3 steady state levels and lysosomal flux” value (macroautophagy (LC3-II))?
Answer: no significant changes in steady state levels of LC3 or in its lysosomal flux

Question: What about the “basal CMA” value ([3]; ATRA treatment, presence of serum) of the same compound?
Answer: did not have a noticeable effect on basal CMA

Question: And the “activation of CMA in response to serum removal” value ([3]; ATRA treatment, serum removal)?
Answer: significantly reduced the activation of this pathway in response to serum removal

Question: What about the “effect on CMA activity in RARα (−) cells” value ([3]; RARα knock-down mouse fibroblasts) of the same compound?
Answer: no longer inhibited CMA activity in RARα (−) cells

Question: What about the “RARα agonist activity (luciferase)” value (hRARα; compound alone) of the same compound?
Answer: dose-dependent activation

Question: What about the “protein degradation in response to prolonged serum removal” value ([4]; 40 μM ATRA, absence of serum) of the same compound?
Answer: significantly reduced the increase in protein degradation

Question: And the “lysosomal degradation (sensitive to inhibitors of lysosomal proteolysis)” value ([4]; 40 μM ATRA, basal and inducible)?
Answer: both basal and inducible lysosomal degradation were significantly compromised

Question: And the “total rates of protein degradation, basal” value ([4]; 40 μM ATRA, presence of serum)?
Answer: did not affect total rates of protein degradation under basal conditions

Question: And the “inhibitory effect on autophagic degradation of cytosolic proteins in RARα (−) cells” value ([4]; ATRA, RARα knock-down)?
Answer: still detectable when RARα (−) cells were supplemented with ATRA

Question: For `Cc1c2oc3c(C)ccc(C(=O)N[C@@H]4C(=O)N[C@H](C(C)C)C(=O)N5CCC[C@H]5C(=O)N(C)CC(=O)N(C)[C@@H](C(C)C)C(=O)O[C@@H]4C)c3nc-2c(C(=O)N[C@@H]2C(=O)N[C@H](C(C)C)C(=O)N3CCC[C@H]3C(=O)N(C)CC(=O)N(C)[C@@H](C(C)C)C(=O)O[C@@H]2C)c(N)c1=O` [Actinomycin D] (I: T[dV]P[Sar][NMeV] / II: T[dV]P[Sar][NMeV]; ester I:1-I:C, II:1-II:C; linker I:N-II:N via Actinocin(9to1)), which “stimulatory effect of AR7 on CMA under transcriptional repression” value ([3]; AR7 plus Actinomycin D) is on record?
Answer: partially reduced the stimulatory effect of AR7 on CMA

Question: What does the source list for `CC1(C)CC=C(c2cnc3ccccc3c2)c2cc(C(=O)Nc3ccc(C(=O)O)cc3)ccc21` [BMS614]?
Answer: macroautophagy: LC3 steady state levels and lysosomal flux (macroautophagy (LC3-II)): inhibited macroautophagy; CMA activity (fluorescent puncta per cell, CMA reporter) ([3]; presence of serum): also enhanced CMA activity

Question: With `CC1=CC(=Cc2ccc(C(=O)NC(=N)N)cc2)CC(C)(C)C1` [GR1, N-[4-(3,5,5-trimethyl-cyclohex-2-enylidenemethyl)-benzoyl]-guanidine] as the compound, how does the “macroautophagy: LC3 steady state levels and lysosomal flux” value (macroautophagy (LC3-II)) read?
Answer: absence of effect on other autophagic pathways

Question: What about the “CMA activity (fluorescent puncta per cell, CMA reporter)” value ([3]; presence of serum) of the same compound?
Answer: marked activation of CMA activity

Question: For `CC1=CC(=Cc2ccc(C(=O)NC(=N)N)cc2)CCC1` [GR2, N-[4-(3-methyl-cyclohex-2-enylidenemethyl)-benzoyl]-guanidine], which “macroautophagy: LC3 steady state levels and lysosomal flux” value (macroautophagy (LC3-II)) is on record?
Answer: absence of effect on other autophagic pathways

Question: And the “CMA activity (fluorescent puncta per cell, CMA reporter)” value ([3]; presence of serum)?
Answer: marked activation of CMA activity

Question: What about the “RARα antagonist activity (inhibition of ATRA-dependent luciferase)” value (hRARα) of the same compound?
Answer: among the most potent antagonist compounds in the library

Question: What does the source list for `Clc1ccc2c(c1)OCC(c1ccc(-c3ccccc3)cc1)=N2` [QX39]?
Answer: CMA activation potency relative to AR7 ([1]; cultured cells, photoactivatable CMA reporter): 2-3 fold; basal versus stress-induced CMA activation [1]: activated both basal and stress-induced CMA
